Data on two compounds can be found in ChEMBL document CHEMBL4414666, “Structure-Activity Relationships of Pentacyclic Triterpenoids as Inhibitors of Cyclooxygenase and Lipoxygenase Enzymes” (J Nat Prod, 2019).

Assay [1] addresses T1, Polyunsaturated fatty acid 5-lipoxygenase (Homo sapiens, UniProt P09917).
T1 sequence (P09917 whole entry): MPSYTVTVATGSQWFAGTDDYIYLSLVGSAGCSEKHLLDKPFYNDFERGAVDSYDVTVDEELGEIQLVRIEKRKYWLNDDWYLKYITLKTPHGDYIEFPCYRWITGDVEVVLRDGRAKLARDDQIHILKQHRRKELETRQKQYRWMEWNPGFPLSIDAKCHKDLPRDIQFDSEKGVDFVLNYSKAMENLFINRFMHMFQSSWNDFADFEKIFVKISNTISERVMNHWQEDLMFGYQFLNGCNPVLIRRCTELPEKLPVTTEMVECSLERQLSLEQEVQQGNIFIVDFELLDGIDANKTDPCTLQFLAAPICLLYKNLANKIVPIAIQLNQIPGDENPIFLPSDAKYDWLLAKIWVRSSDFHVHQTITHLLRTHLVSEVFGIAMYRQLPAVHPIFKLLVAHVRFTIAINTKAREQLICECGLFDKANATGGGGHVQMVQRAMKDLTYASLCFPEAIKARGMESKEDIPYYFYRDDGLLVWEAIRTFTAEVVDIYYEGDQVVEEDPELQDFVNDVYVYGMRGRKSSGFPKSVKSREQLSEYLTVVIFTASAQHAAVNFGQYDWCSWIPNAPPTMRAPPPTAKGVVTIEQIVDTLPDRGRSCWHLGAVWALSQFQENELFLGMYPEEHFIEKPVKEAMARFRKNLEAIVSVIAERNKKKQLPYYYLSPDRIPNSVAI
The experiment in a line: Inhibition of human recombinant 5-LOX expressed in insect cells assessed as decrease in production of 5-HPETE and 5-HETE using arachidonic acid as substrate preincubated for 5 mins followed by substrate addition measured after 20 mins in dark by ferric ion oxidation-xylenol orange method. The conditions noted are these: read-out: IC50.

In assay [2] the target is T2, Polyunsaturated fatty acid 5-lipoxygenase (Homo sapiens) (UniProt P09917).
T2 sequence (whole entry): T1 sequence (P09917 whole entry)
The experiment in a line: Inhibition of human recombinant 5-LOX expressed in insect cells assessed residual activity using arachidonic acid at 42 uM as substrate preincubated for 5 mins followed by substrate addition measured after 20 mins in dark by ferric ion oxidation-xylenol orange method relative to control.

Assay [3] concerns the target T3, Polyunsaturated fatty acid lipoxygenase ALOX15B (Homo sapiens, UniProt O15296).
T3 sequence (O15296 whole entry): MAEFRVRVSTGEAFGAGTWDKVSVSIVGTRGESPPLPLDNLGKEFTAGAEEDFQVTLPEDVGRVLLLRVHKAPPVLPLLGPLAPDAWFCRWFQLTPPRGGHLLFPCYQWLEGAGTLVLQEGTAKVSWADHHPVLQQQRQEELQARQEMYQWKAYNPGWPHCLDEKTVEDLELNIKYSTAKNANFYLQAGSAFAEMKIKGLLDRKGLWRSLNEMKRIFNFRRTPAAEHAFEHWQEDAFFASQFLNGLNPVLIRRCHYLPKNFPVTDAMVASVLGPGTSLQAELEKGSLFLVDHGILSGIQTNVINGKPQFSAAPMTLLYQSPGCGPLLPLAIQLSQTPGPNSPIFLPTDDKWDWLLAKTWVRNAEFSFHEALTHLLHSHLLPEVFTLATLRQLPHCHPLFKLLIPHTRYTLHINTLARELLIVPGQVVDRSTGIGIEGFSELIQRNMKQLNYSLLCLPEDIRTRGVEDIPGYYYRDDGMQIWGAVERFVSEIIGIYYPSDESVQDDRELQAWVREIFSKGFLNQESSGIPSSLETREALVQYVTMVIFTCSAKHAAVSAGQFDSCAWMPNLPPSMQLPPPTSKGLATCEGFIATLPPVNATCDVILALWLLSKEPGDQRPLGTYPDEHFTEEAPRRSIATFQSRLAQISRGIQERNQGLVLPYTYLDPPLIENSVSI
The experiment in a line: Inhibition of human recombinant N-terminal His-tagged 15-LOX2 expressed in Escherichia coli using arachidonic acid as substrate preincubated for 5 mins followed by substrate addition measured after 20 mins in dark by ferric ion oxidation-xylenol orange assay.

Assay [4] concerns the target T4, Polyunsaturated fatty acid lipoxygenase ALOX15B (Homo sapiens) (UniProt O15296).
T4 sequence (whole entry): T3 sequence (O15296 whole entry)
The experiment in a line: Inhibition of human recombinant N-terminal His-tagged 15-LOX2 expressed in Escherichia coli assessed as residual activity at 42 uM using arachidonic acid as substrate preincubated for 5 mins followed by substrate addition measured after 20 mins in dark by ferric ion oxidation-xylenol orange assay relative to control.

In assay [5] the target is T5, Prostaglandin G/H synthase 1 (Ovis aries, UniProt P05979).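 Note: recombinant ovine COX1 enzyme, PGE2 formed from arachidonic acid quantified by LC-MS, 10 min inhibitor preincubation then 45 min reaction, inhibition seen as reduced PGE2.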
T5 sequence (P05979 whole entry): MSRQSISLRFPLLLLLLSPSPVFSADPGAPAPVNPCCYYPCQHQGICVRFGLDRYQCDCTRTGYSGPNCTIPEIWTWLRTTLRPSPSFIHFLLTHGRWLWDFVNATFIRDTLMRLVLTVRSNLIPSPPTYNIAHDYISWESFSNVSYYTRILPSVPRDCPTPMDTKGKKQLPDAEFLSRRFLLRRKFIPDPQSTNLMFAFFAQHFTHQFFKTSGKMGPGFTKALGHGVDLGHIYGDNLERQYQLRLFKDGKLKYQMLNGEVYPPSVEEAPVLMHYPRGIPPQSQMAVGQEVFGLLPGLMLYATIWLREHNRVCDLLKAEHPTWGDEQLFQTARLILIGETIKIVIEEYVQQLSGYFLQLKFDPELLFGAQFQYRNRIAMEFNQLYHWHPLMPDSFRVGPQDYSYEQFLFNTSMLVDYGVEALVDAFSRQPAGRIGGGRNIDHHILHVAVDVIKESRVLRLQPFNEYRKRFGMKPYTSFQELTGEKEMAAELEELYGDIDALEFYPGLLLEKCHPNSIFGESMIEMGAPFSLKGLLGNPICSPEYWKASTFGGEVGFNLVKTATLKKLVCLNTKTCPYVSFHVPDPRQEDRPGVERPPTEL
Description: Inhibition of ovine recombinant COX1 assessed as decrease in formation of PGE2 using arachidonic acid as substrate preincubated for 10 mins followed by substrate addition measured after 45 mins by LC-MS analysis

In assay [6] the target is T6, Prostaglandin G/H synthase 2 (Homo sapiens, UniProt P35354).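 Note: recombinant enzyme produced in baculovirus-infected Sf21 cells, arachidonic acid substrate, PGE2 output quantified by LC-MS after 45 min, compounds preincubated 10 min beforehand, lower PGE2 means inhibition.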
T6 sequence (P35354 whole entry): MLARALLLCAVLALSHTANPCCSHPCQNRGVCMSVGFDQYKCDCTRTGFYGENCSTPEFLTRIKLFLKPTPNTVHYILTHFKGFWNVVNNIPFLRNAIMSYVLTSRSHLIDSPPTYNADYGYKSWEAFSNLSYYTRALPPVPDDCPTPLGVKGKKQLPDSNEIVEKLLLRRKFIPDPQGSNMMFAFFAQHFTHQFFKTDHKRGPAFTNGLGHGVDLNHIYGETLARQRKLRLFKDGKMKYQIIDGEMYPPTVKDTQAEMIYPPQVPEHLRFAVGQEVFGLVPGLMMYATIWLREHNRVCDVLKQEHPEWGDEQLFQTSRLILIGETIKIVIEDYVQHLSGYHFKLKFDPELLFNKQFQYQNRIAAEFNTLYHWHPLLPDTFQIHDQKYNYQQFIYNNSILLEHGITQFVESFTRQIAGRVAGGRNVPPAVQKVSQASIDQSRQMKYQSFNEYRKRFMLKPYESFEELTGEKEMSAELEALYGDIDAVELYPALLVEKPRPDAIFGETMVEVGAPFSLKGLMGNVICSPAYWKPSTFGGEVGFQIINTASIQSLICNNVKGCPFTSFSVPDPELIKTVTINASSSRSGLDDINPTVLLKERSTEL
The experiment in a line: biochemical. It counts as cell-based, Sf21. To be noted: read-out: IC50.
Description: Inhibition of human recombinant COX2 expressed in baculovirus infected sf21 cells assessed as decrease in PGE2 formation using arachidonic acid as substrate preincubated for 10 mins followed by substrate addition measured after 45 mins by LC-MS analysis

By IC50 is commonly meant the midpoint of a concentration-inhibition curve. For `CC1(C)[C@@H](O)CC[C@]2(C)[C@H]3C(=O)C=C4[C@@H]5C[C@@](C)(CO)CC[C@]5(C)CC[C@@]4(C)[C@]3(C)CC[C@@H]12`, the IC50 is 25.7 µM in assay [1], “Not Active” in assay [3], “Not Active” in assay [5] and > 40 µM in assay [6]. Further, the Activity in assay [2] was found to be 25.2%; in assay [4], 100%.

In the case of `CC1(C)CC[C@]2(C(=O)O)CC[C@]3(C)C(=CC[C@@H]4[C@@]5(C)C[C@H](O)[C@H](O)[C@@](C)(C(=O)O)[C@@H]5CC[C@]43C)[C@@H]2C1`, the IC50 in assay [1] is 30.4 µM; in assay [3] it was “Not Active”; in assay [5], “Not Active”; in assay [6], > 40 µM. Further, the Activity in assay [2] came out at 40.7%; in assay [4], 100%.
